Reference: US7906491B2 (Univisitair Medisch Centrum Utrecht, priority 2002, dated 2011)

Tests used:
[1] = test system: PKAI; assay: Relative affinity for PKAI (cAMP = 1), in vitro; type: binding; conditions: relative to cAMP = 1
[2] = test system: PKAII; assay: Relative affinity for PKAII (cAMP = 1), in vitro; type: binding; conditions: relative to cAMP = 1
[3] = biological target: T1, Epac (Homo sapiens, UniProt O95398); assay: Relative affinity for Epac (cAMP = 1), in vitro; type: binding; conditions: relative to cAMP = 1
T1 sequence (O95398 1-923): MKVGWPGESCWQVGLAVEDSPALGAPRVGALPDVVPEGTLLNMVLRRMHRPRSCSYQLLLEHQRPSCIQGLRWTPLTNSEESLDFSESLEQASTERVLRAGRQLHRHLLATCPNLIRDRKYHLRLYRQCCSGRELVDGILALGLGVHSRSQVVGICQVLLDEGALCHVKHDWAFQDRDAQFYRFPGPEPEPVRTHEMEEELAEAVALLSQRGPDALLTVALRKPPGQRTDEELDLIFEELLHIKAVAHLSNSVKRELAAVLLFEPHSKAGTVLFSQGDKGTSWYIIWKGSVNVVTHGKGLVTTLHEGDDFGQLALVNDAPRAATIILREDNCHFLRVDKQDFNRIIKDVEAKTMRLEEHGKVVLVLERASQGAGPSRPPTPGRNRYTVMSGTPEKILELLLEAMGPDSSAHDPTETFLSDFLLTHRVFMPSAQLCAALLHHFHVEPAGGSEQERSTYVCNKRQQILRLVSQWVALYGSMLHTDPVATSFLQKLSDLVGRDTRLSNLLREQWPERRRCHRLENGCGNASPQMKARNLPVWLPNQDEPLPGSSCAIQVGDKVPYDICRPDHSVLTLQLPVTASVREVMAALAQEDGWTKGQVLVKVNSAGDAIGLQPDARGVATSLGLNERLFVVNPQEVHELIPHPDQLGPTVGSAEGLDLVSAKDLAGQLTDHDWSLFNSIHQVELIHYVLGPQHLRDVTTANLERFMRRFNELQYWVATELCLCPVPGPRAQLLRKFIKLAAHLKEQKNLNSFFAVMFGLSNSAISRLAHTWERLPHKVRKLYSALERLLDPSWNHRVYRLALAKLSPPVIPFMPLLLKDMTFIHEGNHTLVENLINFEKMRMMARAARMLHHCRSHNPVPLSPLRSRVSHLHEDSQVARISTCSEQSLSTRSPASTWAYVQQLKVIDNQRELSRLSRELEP

[4] = biological target: T2, Epac1-ΔDEP1 (Homo sapiens, UniProt O95398); assay: In vitro GEF assay: Epac activity in the exchange reaction towards Rap (mantGDP-loaded Rap1b); type: biochemical; conditions: in vitro in the exchange reaction towards Rap; further: key: +++: activity comparible to I-007; ++: activity between I-007 and cAMP; +: activity comparible to cAMP; ±: activity less than cAMP
T2 sequence (O95398 191-923 limits assumed): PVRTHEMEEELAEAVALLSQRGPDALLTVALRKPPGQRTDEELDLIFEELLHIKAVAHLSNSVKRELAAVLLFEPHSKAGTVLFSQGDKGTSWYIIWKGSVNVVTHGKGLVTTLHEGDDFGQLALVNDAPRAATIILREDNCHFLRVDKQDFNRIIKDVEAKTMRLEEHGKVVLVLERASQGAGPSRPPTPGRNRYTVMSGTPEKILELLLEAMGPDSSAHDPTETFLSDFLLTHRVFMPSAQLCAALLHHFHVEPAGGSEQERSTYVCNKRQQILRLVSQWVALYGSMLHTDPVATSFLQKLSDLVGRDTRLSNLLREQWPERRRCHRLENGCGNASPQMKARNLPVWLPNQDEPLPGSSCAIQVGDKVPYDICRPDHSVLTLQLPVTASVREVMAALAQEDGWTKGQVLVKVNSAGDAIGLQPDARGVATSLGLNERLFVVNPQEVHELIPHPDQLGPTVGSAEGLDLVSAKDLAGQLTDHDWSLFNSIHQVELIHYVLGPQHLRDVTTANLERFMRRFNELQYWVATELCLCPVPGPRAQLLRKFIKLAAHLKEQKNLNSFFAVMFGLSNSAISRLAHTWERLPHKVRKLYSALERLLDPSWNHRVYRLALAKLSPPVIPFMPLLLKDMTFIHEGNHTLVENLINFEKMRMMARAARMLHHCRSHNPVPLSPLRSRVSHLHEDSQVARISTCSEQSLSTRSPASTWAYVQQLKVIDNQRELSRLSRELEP
Description: In vitro GEF assays were performed as described (3,16). […] Buffer conditions were 50 mM Tris pH7.4, 150 mM NaCl, 5% glycerol, 5 mM DTE, 60 μM GTP. Reactions were carried out in 96-well plates and measured in a Cary Eclipse from Varian Inc., using the manufacturers software.

Compound	Relative affinity CAMP = 1 PKAI [1]	Relative affinity CAMP = 1 PKAII [2]	Relative affinity CAMP = 1 Epac [3]	Relative activity of Epac* [4]
8-(4-fluoro-phenylthio)-2′-O-methyladenosine-3′,5′-cyclic monophosphate [Compound I-102]	0.02	0.0004	4.5	+++
8-(benzothiazolyl-2-thio)-2′-O-methyladenosine-3′,5′-cyclic monophosphate [Compound I-120]			0.17	+
2′-O-isobutyladenosine-3′,5′-cyclic monophosphate [Compound I-011]	0.0009		0.017	±
8-(3-methoxy-phenylthio)-2′-O-methyladenosine-3′,5′-cyclic monophosphate [Compound I-122]			2	+
8-(4-isopropyl-phenylthio)-2′-O-methyladenosine-3′,5′-cyclic monophosphate [Compound I-123]			4.8	++
8-(4-hydroxy-phenylthio)-2′-O-methyladenosine-3′,5′-cyclic monophosphate [Compound I-125]			6.4	+++
8-benzyloxy-2′-O-methyladenosine-3′,5′-cyclic monophosphate [Compound I-132]			0.18	+
8-(4-chloro-phenylthio)-2′-O-methyladenosine-3′,5′-cyclic monophosphorothioate, Sp-isomer [Compound I-134]				+
2′-O-ethyladenosine-3′,5′-cyclic monophosphate [Compound I-008]	0.0043		0.05	+
8-(4-chloro-phenylthio)-2′-deoxyadenosine-3′,5′-cyclic monophosphorothioate, Sp-isomer [Compound I-138]				+
8-chloro-2′-O-methyladenosine-3′,5′-cyclic monophosphate [Compound I-141]	0.012	0.0002	0.92	
8-(4-chloro-phenylthio)-2′-O-methyladenosine-3′,5′-cyclic monophosphorothioate, Rp-isomer [Compound I-130]			0.06	±
8-(4-methyl-phenylthio)-2′-O-methyladenosine-3′,5′-cyclic monophosphate [Compound I-121]			5.1	+++
8-phenylethylamino-2′-O-methyladenosine-3′,5′-cyclic monophosphate [Compound I-111]			0.08	±
8-(4-Chloro-phenylthio)-inosine-3′,5′-cyclic monophosphate [Compound I-139]				+
8-methoxy-2′-O-methyladenosine-3′,5′-cyclic monophosphate [Compound I-131]			0.36	+
CCSc1nc2c(N)ncnc2n1C1OC2COP(=O)(O)OC2C1OC (centres unmarked) [Compound I-117, 8-ethylthio-2′-O-methyladenosine-3′,5′-cyclic monophosphate]			1.8	+

Compound	Relative affinity CAMP = 1 PKAI [1]	Relative affinity CAMP = 1 PKAII [2]	Relative affinity CAMP = 1 Epac [3]	Relative activity of Epac* [4]
O=[P@]1(O)OC[C@H]2O[C@@H](n3c(Sc4ccc(Cl)cc4)nc4c(Nc5ccccc5)ncnc43)C[C@@H]2O1 [Compound I-004, 8-(4-chloro-phenylthio)-N^6-phenyl-2′-deoxyadenosine-3′,5′-cyclic monophosphate]	0.03	0.26	0.5	
Nc1ncnc2c1nc(Br)n2[C@H]1C[C@@H]2O[P@@](=O)(S)OC[C@H]2O1 [Compound I-136, 8-bromo-2′-deoxyadenosine-3′,5′-cyclic monophosphorothioate, Sp-isomer]				+
8-cyclohexylamino-2′-deoxyadenosine-3′,5′-cyclic monophosphate [Compound I-140]				+
8-(4-chloro-phenylthio)-2′-deoxyadenosine-3′,5′-cyclic monophosphorothioate, Rp-isomer [Compound I-137]				+
8-(benzimidazolyl-2-thio)-2′-O-methyladenosine-3′,5′-cyclic monophosphate [Compound I-115]			0.09	+
8-bromo-2′-deoxyadenosine-3′,5′-cyclic monophosphorothioate, Rp-isomer [Compound I-135]				+
8-(4-chloro-phenylthio)-2′-(N,N-dimethyl)-carbamoyl-adenosine-3′,5′-cyclic monophosphate [Compound I-127]			<0.002	
2′-O-methyladenosine-3′,5′-cyclic monophosphate [Compound I-005]	0.005	0.005	0.12	
8-(2,4-dichloro-phenylthio)-2′-O-methyladenosine-3′,5′-cyclic monophosphate [Compound I-126]			3.1	++
8-(pyridinyl-2-thio)-2′-O-methyladenosine-3′,5′-cyclic monophosphate [Compound I-119]			0.8	++
8-(2-hydroxy-ethylthio)-2′-O-methyladenosine-3′,5′-cyclic monophosphate [Compound I-116]			1.2	+
2′-O-propyladenosine-3′,5′-cyclic monophosphate [Compound I-009]	0.001		0.03	+
8-bromo-2′-O-methyladenosine-3′,5′-cyclic monophosphorothioate, Rp-isomer [Compound I-129]			0.05	±
8-(2-amino-ethylthio)-2′-O-methyladenosine-3′,5′-cyclic monophosphate [Compound I-118]			0.34	±
2′-O-n-butyladenosine-3′,5′-cyclic monophosphate [Compound I-010]	0.0008		0.03	+
8-bromo-2′-O-methyladenosine-3′,5′-cyclic monophosphorothioate, Sp-isomer [Compound I-133]				+
8-(2,3,5,6-tetrafluoro-phenylthio)-2′-O-methyladenosine-3′,5′-cyclic monophosphate [Compound I-124]			4.7	++
